pIC50: −log10 of the molar value. Like-named read-outs stand apart in the source and are kept apart here.
Columns and labels:
[1] = tested on: Ba/F3_Del19/T790M/C797S cells; experiment: Ba/F3_Del19/T790M/C797S cell proliferation inhibition assay (CellTiter-Glo); format: cell-based; settings: Mus musculus; for pIC50: BaF3, cell proliferation, 72 h, CellTiter-Glo, read-out: Ba/F3 (Del19/T790M/C797S) IC50; for IC50: BaF3, 72 h, read-out: Ba/F3 (Del19/T790M/C797S) IC50(nM)
Method: Ba/F3_Del19/T790M/C797S Cell Proliferation Inhibition Assay
In the assay, the inhibition effect of the compounds on the proliferation of Ba/F3_Del19/T790M/C797S cells was tested by adopting a CellTiter-Glo method, and the concentration IC50 of the compound for inhibiting half maximal growth of cells was obtained.
Ba/F3_Del19/T790M/C797S, purchased from Kyinno Biotechnology Co., Ltd. 1640 medium, fetal bovine serum (FBS), Penicillin-Streptomyces, and GlutaMAX-I Supplement, purchased from GIBCO.
(§1) Brigatinib, purchased from Selleck.
(§2) CellTiter-Glo reagent, purchased from Promega.
1) Ba/F3_Del19/T790M/C797S cells were seeded in a 384-well plate at a density of 700 cells/well with 30 μL/well.
(§3) 2) Day 0: […] of gradiently-diluted compounds to be tested with a final concentration of DMSO of 0.1% was added to plate using Echo, and the plate was incubated in a cell incubator for 72 h (37° C., 5% CO2). […] of DMSO was added into each well in blank control group.
(§4) 3) Day 3: 30 μL Cell Titer-Glo reagent was added to each well, and the plate was in the dark under room temperature for 30 min.
(§5) 4) The chemiluminescent signal was detected by an Envision plate reader (PerkinElmer).
Data analysis was performed using GraphPad Prism 6 software to give the IC50 for compounds.

[2] = tested on: Ba/F3_L858R/T790M/C797S cells; experiment: Ba/F3_L858R/T790M/C797S cell proliferation inhibition assay (CellTiter-Glo); format: cell-based; settings: Mus musculus; for pIC50: BaF3, cell proliferation, 72 h, CellTiter-Glo, read-out: Ba/F3 (L858R/T790M/C797S) IC50; for IC50: BaF3, 72 h, read-out: Ba/F3 (L858R/T790M/C797S) IC50(nM)
Method: Ba/F3_L858R/T790M/C797S Cell Proliferation Inhibition Assay
In the assay, the inhibition effect of the compounds on the proliferation of Ba/F3_L858R/T790M/C797S cells was tested by adopting a CellTiter-Glo method, and the concentration IC50 of the compound for inhibiting half maximal growth of cells was obtained.
Ba/F3_L858R/T790M/C797S cells were constructed by Pharmaron Beijing Co., Ltd.
1640 medium, fetal bovine serum (FBS), Penicillin-Streptomyces, and GlutaMAX-I Supplement, purchased from GIBCO.
as §1, §2
1) Ba/F3_L858R/T790M/C797S cells were seeded in a 384-well plate at a density of 700 cells/well with 30 μL/well.
as §3, §4, §5
(§6) 5) Data analysis was performed using GraphPad Prism software to give the IC50 for compounds.

A431 cells (EGFR WT) = experiment: A431 cell proliferation inhibition assay (CellTiter-Glo); format: cell-based; settings: Homo sapiens; for pIC50: A-431, cell proliferation, 72 h, CellTiter-Glo, read-out: A431 EGFR WT IC50; for IC50: A-431, 72 h, read-out: A431 EGFR WT IC50(nM)
Method: A431 Cell Proliferation Inhibition Assay
In the assay, the inhibition effect of the compounds on the proliferation of A431 cells was tested by adopting a CellTiter-Glo method, and the concentration IC50 of the compound for inhibiting half maximal growth of cells was obtained.
A431 cells, purchased from ATCC.
DMEM medium, fetal bovine serum (FBS), and Penicillin-Streptomycin, purchased from GIBCO.
as §1, §2
1) A431 cells were seeded in a 384-well plate at a density of 800 cells/well with 30 μL/well, and the plate was cultured in a cell incubator for 24 h (37° C., 5% CO2).
as §3, §4, §5, §6

EGFR WT (wild type EGFR) = EGFR WT (wild type EGFR) (Homo sapiens (Human), UniProt P00533); experiment: In vitro enzymatic TR-FRET (HTRF KinEASE-TK) kinase assay, EGFR WT; format: biochemical
Method: (I) In Vitro Enzymatic Experiment for EGFR WT and EGFR L858R/T790M/C797S
In the assay, the inhibition effect of the compound on the kinase activity of EGFR WT (wild type EGFR) and EGFR L858R/T790M/C797S was tested by adopting a time-resolved fluorescence resonance energy transfer (TR-FRET) method, and half maximal inhibitory concentration IC50 of the compound on the kinase activity of EGFR was obtained.
EGFR recombinase and EGFR L858R/T790M/C797S recombinase, purchased from Signalchem.
HTRF KinEASE-TK kit, purchased from Cisbio.
DTT, MnCl2, and MgCl2, purchased from Sigma.
ATP, purchased from Promega.
as §1
1) 1× working solution was prepared: 5 mM MgCl2; 1 mM DTT; 1 mM MnCl2 and 1× kinase buffer (in kit).
2) […] of gradiently-diluted compound was transferred to a 384-well plate using Echo 550 (Labcyte).
3) 5 μL of 2× EGFR WT or EGFR L858R/T790M/C797S recombinase solution was added to the 384-well plate, and the plate was incubated at room temperature for 10 min.
4) 5 μL of 2× TK-substrate-biotin substrate solution (containing ATP) was added to the 384-well plate, and the plate was incubated at room temperature for 40 min.
5) 5 μL of assay solution containing Sa-XL 665 HTRF and 5 μL of TK-antibody-Cryptatewas were added to the plate, and the plate was incubated at room temperature for 1 h.
6) The fluorescence signal values at 615 nm and 665 nm were measured for each well using an Envision microplate reader (PerkinElmer).
7) The ratio of fluorescence signal values at 665 nm and 615 nm was calculated for each well.
8) Data analysis was performed using GraphPad Prism software to give the IC50 for compounds.

[3] = kinase activity, TR-FRET, read-out: EGFR (WT) IC50

EGFR WT (wild type EGFR), sequence (P00533 25-1210): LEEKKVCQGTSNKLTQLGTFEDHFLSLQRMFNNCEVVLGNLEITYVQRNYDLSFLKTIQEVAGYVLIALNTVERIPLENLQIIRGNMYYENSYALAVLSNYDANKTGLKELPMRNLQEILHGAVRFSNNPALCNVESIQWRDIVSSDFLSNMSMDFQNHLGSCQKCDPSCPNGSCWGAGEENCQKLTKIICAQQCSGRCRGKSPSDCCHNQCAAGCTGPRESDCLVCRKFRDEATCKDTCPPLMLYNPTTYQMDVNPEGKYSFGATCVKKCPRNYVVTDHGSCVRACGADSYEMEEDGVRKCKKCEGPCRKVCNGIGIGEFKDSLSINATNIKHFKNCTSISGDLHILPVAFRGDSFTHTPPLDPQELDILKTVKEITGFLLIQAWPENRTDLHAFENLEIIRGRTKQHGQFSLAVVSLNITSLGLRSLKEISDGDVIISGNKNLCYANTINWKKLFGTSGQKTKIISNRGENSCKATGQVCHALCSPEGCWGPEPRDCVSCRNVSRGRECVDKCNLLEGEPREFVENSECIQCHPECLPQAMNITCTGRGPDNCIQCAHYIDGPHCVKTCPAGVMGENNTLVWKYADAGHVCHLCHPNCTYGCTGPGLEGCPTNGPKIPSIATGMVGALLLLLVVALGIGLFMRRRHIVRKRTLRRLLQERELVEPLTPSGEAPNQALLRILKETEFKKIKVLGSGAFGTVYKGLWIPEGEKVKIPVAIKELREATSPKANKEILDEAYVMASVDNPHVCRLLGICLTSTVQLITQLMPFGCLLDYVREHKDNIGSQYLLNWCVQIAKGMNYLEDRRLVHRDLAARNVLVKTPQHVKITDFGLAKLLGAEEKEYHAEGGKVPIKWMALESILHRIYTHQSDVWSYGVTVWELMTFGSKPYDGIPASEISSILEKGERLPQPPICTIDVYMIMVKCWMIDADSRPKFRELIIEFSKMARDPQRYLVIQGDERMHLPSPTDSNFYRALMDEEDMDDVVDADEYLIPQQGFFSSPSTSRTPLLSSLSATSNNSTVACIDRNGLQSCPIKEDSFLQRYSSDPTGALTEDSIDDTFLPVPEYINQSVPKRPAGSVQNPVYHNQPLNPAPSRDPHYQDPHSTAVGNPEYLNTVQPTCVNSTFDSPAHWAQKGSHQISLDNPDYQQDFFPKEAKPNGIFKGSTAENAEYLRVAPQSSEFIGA

pIC50 [1]	pIC50 [2]	pIC50 (A431 cells (EGFR WT))	pIC50 (EGFR WT (wild type EGFR); [3])	Compound	IC50 [1]	IC50 [2]	IC50 (A431 cells (EGFR WT))	pIC50 (EGFR WT (wild type EGFR))
> 8.00	7.30 to 8.00	6.00 to 7.00	7.30 to 8.00	COc1nc2c(cc1Nc1ncc(Br)c(Nc3ccccc3P(C)(C)=O)n1)-c1cnn(C)c1CCN2 [Compound 51]	–	–	–	–
> 8.00	> 8.00	6.00 to 7.00	8.00 to 9.00	COc1nc2c(cc1Nc1ncc(Br)c(Nc3ccc4nccnc4c3P(C)(C)=O)n1)-c1cnn(C)c1CCN2 [Compound 52]	–	–	–	–
> 8.00	7.30 to 8.00	6.00 to 7.00	8.00 to 9.00	COc1cc2c(cc1Nc1ncc(Br)c(Nc3ccccc3NS(C)(=O)=O)n1)-c1cnn(C)c1CCN2C(C)C [Compound 54]	–	–	–	–
7.30 to 8.00	6.00 to 7.00	6.00 to 7.00	7.30 to 8.00	COc1cc2c(cc1Nc1ncc(Br)c(Nc3ccccc3P(C)(C)=O)n1)-c1cnc(C)n1CCN2C [Compound 55]	–	–	–	–
7.30 to 8.00	7.30 to 8.00	< 6.00	7.30 to 8.00	COc1cc2c(cc1Nc1nc(Nc3ccccc3P(C)(C)=O)c3sccc3n1)-c1cnn(C)c1CCN2C [Compound 58]	–	–	–	–
> 8.00	> 8.00	7.30 to 8.00	8.00 to 9.00	COc1cc2c(cc1Nc1nc(Nc3ccc4nccnc4c3P(C)(C)=O)c3cc[nH]c3n1)-c1cnn(C)c1CCN2C [Compound 60]	–	–	–	–
> 8.00	> 8.00	7.30 to 8.00	8.00 to 9.00	COc1cc2c(cc1Nc1nc(Nc3ccc4nccnc4c3P(C)(C)=O)c3sccc3n1)-c1cnn(C)c1CCN2C [Compound 61]	–	–	–	–
> 8.00	7.30 to 8.00	6.00 to 7.00	8.00 to 9.00	COc1cc2c(cc1Nc1ncc(Br)c(Nc3ccccc3P(C)(C)=O)n1)-c1cnn(C)c1CCN2C1CCN(C)CC1F (stereo not shown) [Compound 65]	–	–	–	–
> 8.00	> 8.00	7.00 to 7.30	8.00 to 9.00	COc1cc2c(cc1Nc1ncc(Br)c(Nc3ccc4nccnc4c3P(C)(C)=O)n1)-c1cnn(C)c1CNC2 [Compound 71]	–	–	–	–
7.30 to 8.00	7.30 to 8.00	6.00 to 7.00	7.30 to 8.00	COc1cc2c(cc1Nc1ncc(Br)c(Nc3ccccc3P(C)(C)=O)n1)-c1cnn(C)c1CCN2CC(F)(F)F [Compound 73]	–	–	–	–
7.30 to 8.00	7.00 to 7.30	6.00 to 7.00	8.00 to 9.00	COc1cc2c(cc1Nc1ncc(Br)c(Nc3ccccc3P(C)(C)=O)n1)-c1cnn(C3CCN(C)CC3)c1CCN2C(C)C [Compound 75]	–	–	–	–
7.30 to 8.00	7.30 to 8.00	6.00 to 7.00	7.30 to 8.00	COc1nc2c(cc1Nc1ncc(Br)c(Nc3ccccc3P(C)(C)=O)n1)-c1cnn(C)c1CCN2C [Compound 79]	–	–	–	–
> 8.00	> 8.00	6.00 to 7.00	8.00 to 9.00	COc1nc2c(cc1Nc1ncc(Br)c(Nc3ccc4nccnc4c3NS(C)(=O)=O)n1)-c1cnn(C)c1CCN2 [Compound 81]	–	–	–	–
> 8.00	> 8.00	6.00 to 7.00	8.00 to 9.00	COc1cc2c(cc1Nc1ncc(Br)c(Nc3ccccc3P(C)(C)=O)n1)-c1cnn(C)c1CCN2C1CCOCC1 [Compound 87]	–	–	–	–
> 8.00	7.30 to 8.00	6.00 to 7.00	8.00 to 9.00	COc1cc2c(cc1Nc1ncc(Br)c(Nc3ccccc3P(C)(C)=O)n1)-c1cnn(C)c1C(F)(F)CN2 [Compound 92]	–	–	–	–
7.30 to 8.00	7.30 to 8.00	6.00 to 7.00	8.00 to 9.00	COc1cc2c(cc1Nc1ncc(C)c(Nc3ccccc3P(C)(C)=O)n1)-c1cnn(C)c1CCN2C(C)C [Compound 94]	–	–	–	–
7.30 to 8.00	7.00 to 7.30	6.00 to 7.00	8.00 to 9.00	COc1cc2c(cc1Nc1ncc(Cl)c(Nc3ccncc3P(C)(C)=O)n1)-c1cnn(C)c1CCN2C(C)C [Compound 95]	–	–	–	–
> 8.00	> 8.00	6.00 to 7.00	8.00 to 9.00	COc1cc2c(cc1Nc1ncc(Br)c(Nc3ccc4nccnc4c3P(C)(C)=O)n1)-c1cnn(C)c1CCN2C1CCN(C2CC(F)(F)C2)CC1 [Compound 96]	–	–	–	–
> 8.00	7.30 to 8.00	6.00 to 7.00	8.00 to 9.00	COc1cc2c(cc1Nc1ncc(Br)c(Nc3ccncc3P(C)(C)=O)n1)-c1cnn(C)c1CCN2C(C)C [Compound 97]	–	–	–	–
7.30 to 8.00	7.30 to 8.00	6.00 to 7.00	8.00 to 9.00	COc1cc2c(cc1Nc1ncc(Br)c(Nc3ccc4nccnc4c3P(C)(C)=O)n1)-c1cnn(C3COC3)c1CCN2C(C)C [Compound 98]	–	–	–	–
7.30 to 8.00	7.30 to 8.00	6.00 to 7.00	8.00 to 9.00	COc1cc2c(cc1Nc1ncc(Cl)c(Nc3cccnc3P(C)(C)=O)n1)-c1cnn(C)c1CCN2C(C)C [Compound 100]	–	–	–	–
–	–	–	–	COc1cc2c(cc1Nc1ncc(Br)c(Nc3ccccc3P(C)(C)=S)n1)-c1cnn(C)c1CCN2C1CCN(C)CC1 [Compound 101]	< 10 nM	< 10 nM	100 to 1000 nM	8.00 to 9.00
> 8.00	> 8.00	6.00 to 7.00	8.00 to 9.00	COc1cc2c(cc1Nc1ncc(Cl)c(Nc3ccc4nccnc4c3NS(C)(=O)=O)n1)-c1cnn(C)c1CCN2C(C)C [Compound 103]	–	–	–	–
> 8.00	> 8.00	6.00 to 7.00	8.00 to 9.00	COc1cc2c(cc1Nc1ncc(C)c(Nc3ccc4nccnc4c3NS(C)(=O)=O)n1)-c1cnn(C)c1CCN2C(C)C [Compound 104]	–	–	–	–
–	–	–	–	COc1cc2c(cc1Nc1ncc(Br)c(Nc3ccccc3P(C)(C)=S)n1)-c1cnn(C)c1CCN2C1CCN(C(C)C)CC1 [Compound 105]	< 10 nM	10 to 50 nM	100 to 1000 nM	8.00 to 9.00
> 8.00	7.30 to 8.00	6.00 to 7.00	8.00 to 9.00	COc1cc2c(cc1Nc1ncc(Br)c(Nc3ccc4nccnc4c3NC(C)=O)n1)-c1cnn(C)c1CCN2C(C)C [Compound 106]	–	–	–	–

Compound	pIC50 [1]	pIC50 [2]	pIC50 (A431 cells (EGFR WT))	pIC50 (EGFR WT (wild type EGFR); [3])	IC50 [1]	IC50 [2]	IC50 (A431 cells (EGFR WT))	pIC50 (EGFR WT (wild type EGFR))
COc1cc2c(cc1Nc1ncc(Br)c(Nc3ccccc3P(C)(C)=O)n1)-c1cn(CCN(C)C)nc1CCN2C(C)C [Compound 56]	–	–	–	8.00 to 9.00	< 10 nM	10 to 50 nM	100 to 1000 nM	–
COc1cc2c(cc1Nc1ncc(Br)c(Nc3ccc4nccnc4c3P(C)(C)=O)n1)-c1cnn(C)c1CN(C(C)C)C2 [Compound 72]	–	–	–	8.00 to 9.00	< 10 nM	10 to 50 nM	50 to 100 nM	–

Reference: US20240034743A9, “TRICYCLIC COMPOUNDS AS EGFR INHIBITORS” (QILU PHARMACEUTICAL CO., LTD., priority 2020, published 2024)
